Patent US12220404B2, “Treatment and management of augmentation in restless legs syndrome” (East Carolina University, priority 2015, dated 2025)
Entries after “also recorded” stand apart in the source; their conditions may differ.

Assays:
wild type (WT) animals = assay: Thermal pain withdrawal reflex latencies (Hargreaves apparatus); assay type: in vivo, mice; conditions: for thermal withdrawal latencies: WT, pramipexole 0.5 mg/kg, SCH 39166 0.1 mg/kg
Experimental: Assessment of baseline pain withdrawal reflex latencies (“thermal pain”): RLS is first and foremost a sensory disorder that is accompanied by a motor component. The clinical sensations (“urge to move”) stem from deep muscle tissues and are considered “painful” by many, if not most patients, unless acted on immediately (moving of the limbs). Pain from deep muscles is carried by both unmyelinated C-fibers (both peptidergic and non-peptidergic) as well as a-∂ fiber. Pain due to thermal stimulus energy is carried specifically by subsets of these nociceptors that express the transient receptor potential-V1 protein (TRPV1). These TRPV1 expressing nociceptors also have extensive cutaneous distribution and are easily activated by a heat source applied to the surface of the skin. Thus the thermal pain stimulus tested in the Hargreaves apparatus (IITC, Inc., Life Science, Model 39D) provides an appropriate surrogate for monitoring changes in deep muscle nociceptor activity that may be present in RLS, and the latencies to withdraw the hindpaw from a noxious thermal stimulus applied to the plantar surface of the hindpaw provide a measure of pain sensitivity. Animals will be removed from their home cages and placed individually in the small Plexiglas containers of the Hargreave's system (4″ width×4″ length×5″ height). The behavior room has optional low light settings to minimize visual perturbations. Each day, animals will be acclimatized on the Hargreaves platform for 1-2 hrs. Subsequently, baseline withdrawal latencies will be determined for each animal, with five independent trials performed per hindpaw per session and a mean latency calculated for each day. The tests will be administered over 4 days.
Drug injection protocol: After establishing baseline parameters, each animal will receive in weeks 1-4 once daily a single-drug i.p. injection of the respective compound: 0.9% NaCl (sham), the D3R agonist (pramipexole) at 0.1 or 0.5 mg/kg, or the D1R antagonist ecopipam ([…]) at 0.1 mg/kg, and tested for thermal pain withdrawal tolerance (details in flow chart, FIG. 5). […] Each cohort will be treated independently of each other, but all animals will receive their respective i.p. injections daily (7 days/week) between 9-11 am in the morning, to avoid possible conflicts with the circadian cycle. Thermal pain withdrawal reflexes will be tested as above on 4 subsequent days per week in the afternoon, starting on the second day of the drug injections. Subgroups a) of each cohort will be euthanized after 1 week, with subgroups b)-d) following suite in 1-week intervals (FIG. 5).
Statistical Analysis: For the behavioral experiments, withdrawal latencies under drug conditions will be averaged and normalized to the mean of the pre-drug values, and statistical significance will be determined with RM ANOVA and subsequent post-hoc comparisons, as appropriate, and with a set <0.05 (SigmaPlot, Systat, San Jose, CA). For the data analysis of the Western blots, we will use One-way ANOVA testing to assess significance, and identify group differences with appropriate post-hoc comparisons (e.g. Holm-Sidak).

[1] = system: isolated spinal cord (monosynaptic stretch reflex); assay: Spinal reflex amplitudes (SRAs) in the isolated spinal cord; parameters: species or system mice
Experimental: Animals will be anesthetized with ketamine/xylazine and decapitated, and the spinal cord carefully dissected out of the body cavity and placed in a Sylgard-lined (Dow Corning, Midland MI) Petri dish in cooled (<4° C.) artificial cerebrospinal fluid (ACSF) containing (in mM); 125 NaCl, 2.5 KCl, 2 CaCl2, 1 MgCl2, 25 glucose, 1.25 NaH2PO4, and 26 NaHCO3 at a pH of 7.4, oxygenated with 95% O2-5% CO2. After opening and removing the dura mater, to facilitate the access of ACSF to the cord, dorsal and ventral roots will be identified and pinned out with small insect pins. Preparations will either be left intact (in animals less than 7 days old) or hemisected mid-sagittally (>1 week old animals). The hemisection in the older animals helps better oxygenate the tissue and extends the life expectancy of the isolated preparation. Under these conditions, we can hold the spinal cord functionally alive for more than 24 hours, and we have been able test SRAs in individual preparations for up to 48 hours. After a 30-60 min recovery at room temperature, glass suction electrodes will be placed on the distal parts of dorsal and ventral roots of lumbar segments L2-L5. […] For the analyses, reflex responses will be rectified and the calculated integrals of these responses measured and compared between epochs of identical duration before and after drug application. For short-term assessments of drug effects, we will average the last ten consecutive SRAs measured before drug application with the last ten consecutive SRAs after 30 min of application of the drugs per epoch. […]
Statistical Analysis: For the experiments on the isolated spinal cords, we will measure SRAs under control and drug conditions, and data will be averaged and normalized to the mean of the pre-drug values. Statistical significance will be determined with One-Way ANOVA and subsequent post-hoc comparisons or t-tests, as appropriate, and with a set <0.05 (SigmaPlot, Systat, San Jose, CA).

[2] = short-term bath application (less than 30 min)

SMILES: CN1CCc2cc(Cl)c(O)cc2[C@H]2c3ccccc3CC[C@@H]21 [SCH 39166, ecopipam]
- thermal withdrawal latencies (wild type (WT) animals; acute treatment): 131+/−6.5 % of control
- acute modulation of thermal withdrawal responses (FIG. 2) (wild type (WT) animals; acute treatment, result in words): increase withdrawal latencies
- withdrawal latencies after single injection of D1R antagonist (wild type (WT) animals; animals treated for 4 weeks with pramipexole, 1 hour post-injection): 150.+/−15%
- long-term effect on withdrawal latencies (wild type (WT) animals; daily for 4 weeks, current data sets, result in words): does not have a significant effect
- withdrawal latencies after single injection of D1R antagonist (wild type (WT) animals; non-treated group, week 1, one hour after the injection): 151 +/−13%
- spinal reflex amplitudes (SRAs) ([1]; additional bath-application after prolonged pramipexole exposure): decreased

SMILES: Oc1cc2c(cc1O)C(c1ccccc1)CNCC2 (stereo not drawn) [SKF 38393]
- spinal reflex amplitudes (SRAs) [1, 2]: significantly increased them; also recorded: increases SRAs

SMILES: CCCN1C[C@H](CSC)C[C@@H]2c3cccc4[nH]cc(c34)C[C@H]21 [pergolide]
- spinal reflex amplitudes (SRAs) [1, 2]: significantly decreased SRAs; also recorded: significantly decreases SRAs over control

SMILES: CCCN[C@H]1CCc2nc(N)sc2C1 [pramipexole]
- thermal withdrawal latencies (wild type (WT) animals; acute treatment): 152.9+/−2.8 % of control
- post-injection withdrawal latencies (wild type (WT) animals; after 4 weeks of daily injections with pramipexole, 1 hr post-injection): 75.2+/−32%
- post injection withdrawal latencies (wild type (WT) animals; week 1, one hour after the first injection, 0.5 mg/kg pramipexole): 194.65%±27
- withdrawal latencies to a thermal stimulus, weekly average (wild type (WT) animals; week 1, pramipexole 0.5 mg/kg/day chronic injections): 204.81%±6.3 % of control
- withdrawal latencies to a thermal stimulus, weekly average (wild type (WT) animals; week 2, pramipexole 0.5 mg/kg/day chronic injections): 158+/−12 % of control
- withdrawal latencies to a thermal stimulus, weekly average (wild type (WT) animals; week 3, pramipexole 0.5 mg/kg/day chronic injections): 135+/−6.5 % of control
- withdrawal latencies to a thermal stimulus, weekly average (wild type (WT) animals; week 4, pramipexole 0.5 mg/kg/day chronic injections): 85+/−11 % of control
